Measurements from ChEMBL document CHEMBL4818986, “Recent progress on HDAC inhibitors with dual targeting capabilities for cancer treatment” (Eur J Med Chem, 2020).

Legend:
4T1 = assay: Antiproliferative activity against mouse 4T1 cells by EdU alexa fluor high-throughput imaging method; type: functional, cell-based
THP-1 = assay: Antiproliferative activity against human THP1 incubated for 72 hrs by Trypan Blue reagent based assay; type: functional, cell-based; conditions: THP-1, 72 h
Histone deacetylase [1] = assay: Inhibition of HDAC in human K562 cells using Boc-K(Ac)-AMC as substrate preincubated for 3 hrs followed by substrate addition and measured after 3 hrs by fluorescence method; type: cell-based
[2] = molecular target: T1, Histone-lysine N-methyltransferase EHMT2 (Homo sapiens, UniProt Q96KQ7); assay: Inhibition of G9a in human MDA-MB-231 cells assessed as effect on H3K9Me2 levels incubated for 48 hrs by immunofluorescence in-cell western assay; type: cell-based
T1 sequence (Q96KQ7 whole entry): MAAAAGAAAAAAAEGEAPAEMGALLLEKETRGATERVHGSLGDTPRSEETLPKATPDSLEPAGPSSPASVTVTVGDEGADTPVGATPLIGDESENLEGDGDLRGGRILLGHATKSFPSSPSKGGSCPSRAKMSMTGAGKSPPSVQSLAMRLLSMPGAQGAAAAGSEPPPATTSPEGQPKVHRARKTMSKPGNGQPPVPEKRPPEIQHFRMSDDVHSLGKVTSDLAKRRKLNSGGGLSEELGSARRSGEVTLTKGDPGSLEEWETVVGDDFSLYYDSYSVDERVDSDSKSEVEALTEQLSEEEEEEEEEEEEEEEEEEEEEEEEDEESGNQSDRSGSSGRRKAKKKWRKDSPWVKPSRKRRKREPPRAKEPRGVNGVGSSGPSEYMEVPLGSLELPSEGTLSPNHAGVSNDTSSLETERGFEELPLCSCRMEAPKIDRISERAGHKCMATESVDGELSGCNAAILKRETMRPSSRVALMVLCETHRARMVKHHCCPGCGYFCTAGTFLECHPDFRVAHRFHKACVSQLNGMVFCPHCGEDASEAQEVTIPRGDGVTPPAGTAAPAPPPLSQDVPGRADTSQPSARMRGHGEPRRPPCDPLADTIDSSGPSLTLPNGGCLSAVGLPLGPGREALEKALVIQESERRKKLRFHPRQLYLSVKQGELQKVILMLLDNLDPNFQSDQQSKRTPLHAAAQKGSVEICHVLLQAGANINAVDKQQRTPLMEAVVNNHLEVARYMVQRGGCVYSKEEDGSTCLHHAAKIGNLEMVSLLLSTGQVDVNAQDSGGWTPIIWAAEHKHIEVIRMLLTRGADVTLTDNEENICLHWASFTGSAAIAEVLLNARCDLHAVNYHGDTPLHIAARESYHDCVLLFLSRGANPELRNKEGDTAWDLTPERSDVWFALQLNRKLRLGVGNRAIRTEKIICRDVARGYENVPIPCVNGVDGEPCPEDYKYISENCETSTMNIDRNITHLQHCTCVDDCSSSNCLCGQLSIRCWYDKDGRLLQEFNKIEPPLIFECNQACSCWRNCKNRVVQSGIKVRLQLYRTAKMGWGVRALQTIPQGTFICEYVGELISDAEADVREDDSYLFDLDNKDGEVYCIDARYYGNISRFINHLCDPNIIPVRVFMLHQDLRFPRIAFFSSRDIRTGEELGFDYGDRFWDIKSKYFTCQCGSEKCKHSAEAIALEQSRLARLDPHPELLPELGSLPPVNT

Histone deacetylase 1 [3] = molecular target: T2, Histone deacetylase 1 (Homo sapiens, UniProt Q13547); assay: Inhibition of human HDAC1 expressed in baculovirus expression system by fluorescence method
T2 sequence (Q13547 whole entry): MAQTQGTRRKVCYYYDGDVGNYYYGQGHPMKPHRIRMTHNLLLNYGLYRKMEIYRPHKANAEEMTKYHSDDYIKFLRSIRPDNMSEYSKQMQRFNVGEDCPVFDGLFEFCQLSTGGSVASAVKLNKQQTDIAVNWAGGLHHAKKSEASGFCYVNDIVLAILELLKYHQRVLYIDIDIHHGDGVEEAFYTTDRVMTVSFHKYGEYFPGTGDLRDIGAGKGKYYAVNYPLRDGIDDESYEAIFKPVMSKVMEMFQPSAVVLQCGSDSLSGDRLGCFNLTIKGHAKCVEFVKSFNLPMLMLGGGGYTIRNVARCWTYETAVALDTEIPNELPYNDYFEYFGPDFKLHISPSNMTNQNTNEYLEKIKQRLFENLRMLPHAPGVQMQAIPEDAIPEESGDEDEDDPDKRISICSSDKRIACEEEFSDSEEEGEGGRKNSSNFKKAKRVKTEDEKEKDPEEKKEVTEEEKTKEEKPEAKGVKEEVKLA

CAPAN-1 = assay: Antiproliferative activity against human CAPAN 1 cells incubated for 72 hrs by CCK8 assay; type: functional, cell-based; conditions: CAPAN-1, 72 h
T98G = assay: Antiproliferative activity against human T98G cells assessed as reduction in cell viability incubated for 72 hrs by MTT assay; type: functional, cell-based
U-87 MG = assay: Antiproliferative activity against human U87 cells assessed as reduction in cell viability incubated for 72 hrs by MTT assay; type: functional, cell-based, U-87MG ATCC
U-251 = assay: Antiproliferative activity against human U251 cells assessed as reduction in cell viability incubated for 72 hrs by MTT assay; type: functional, cell-based; conditions: U-251, 72 h
Histone deacetylase 1 [4] = molecular target: T2, Histone deacetylase 1; assay: Inhibition of HDAC1 (unknown origin)
[5] = molecular target: T3, Protein deacetylase HDAC6 (Homo sapiens, UniProt Q9UBN7); assay: Inhibition of HDAC6 (unknown origin)
T3 sequence (Q9UBN7 whole entry): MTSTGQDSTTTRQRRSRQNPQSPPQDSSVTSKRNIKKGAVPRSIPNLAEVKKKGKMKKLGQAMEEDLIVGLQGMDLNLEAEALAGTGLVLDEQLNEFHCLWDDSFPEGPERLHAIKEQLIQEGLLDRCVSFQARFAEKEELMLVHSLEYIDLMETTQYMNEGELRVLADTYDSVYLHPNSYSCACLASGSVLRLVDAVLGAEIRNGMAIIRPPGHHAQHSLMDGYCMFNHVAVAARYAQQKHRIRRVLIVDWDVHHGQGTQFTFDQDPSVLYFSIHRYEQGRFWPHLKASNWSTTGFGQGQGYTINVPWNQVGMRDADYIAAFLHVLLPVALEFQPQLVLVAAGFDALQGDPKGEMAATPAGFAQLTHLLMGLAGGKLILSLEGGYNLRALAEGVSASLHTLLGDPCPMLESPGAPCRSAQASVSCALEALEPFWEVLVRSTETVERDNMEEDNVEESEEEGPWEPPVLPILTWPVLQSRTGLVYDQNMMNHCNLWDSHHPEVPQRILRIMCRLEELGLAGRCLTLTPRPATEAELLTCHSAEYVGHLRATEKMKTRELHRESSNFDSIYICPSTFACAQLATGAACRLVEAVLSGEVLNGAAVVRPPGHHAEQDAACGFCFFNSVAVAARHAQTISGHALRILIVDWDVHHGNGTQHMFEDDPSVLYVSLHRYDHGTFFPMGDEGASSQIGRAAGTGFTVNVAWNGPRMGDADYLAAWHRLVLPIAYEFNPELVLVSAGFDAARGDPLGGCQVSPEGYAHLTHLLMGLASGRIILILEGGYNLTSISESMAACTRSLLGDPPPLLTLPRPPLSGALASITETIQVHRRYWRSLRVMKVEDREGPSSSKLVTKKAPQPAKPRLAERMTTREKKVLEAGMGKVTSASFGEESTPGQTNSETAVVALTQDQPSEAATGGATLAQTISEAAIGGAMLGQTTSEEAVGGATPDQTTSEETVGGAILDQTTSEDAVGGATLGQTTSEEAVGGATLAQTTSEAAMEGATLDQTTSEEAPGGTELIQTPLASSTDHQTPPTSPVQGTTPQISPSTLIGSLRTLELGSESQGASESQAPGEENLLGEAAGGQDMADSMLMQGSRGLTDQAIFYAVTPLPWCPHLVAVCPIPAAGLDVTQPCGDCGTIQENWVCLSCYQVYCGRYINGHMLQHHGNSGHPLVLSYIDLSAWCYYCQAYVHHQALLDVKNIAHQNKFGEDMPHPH

[6] = molecular target: T4, Epidermal growth factor receptor (Homo sapiens, UniProt P00533); assay: Inhibition of EGFR (unknown origin)
T4 sequence (P00533 whole entry): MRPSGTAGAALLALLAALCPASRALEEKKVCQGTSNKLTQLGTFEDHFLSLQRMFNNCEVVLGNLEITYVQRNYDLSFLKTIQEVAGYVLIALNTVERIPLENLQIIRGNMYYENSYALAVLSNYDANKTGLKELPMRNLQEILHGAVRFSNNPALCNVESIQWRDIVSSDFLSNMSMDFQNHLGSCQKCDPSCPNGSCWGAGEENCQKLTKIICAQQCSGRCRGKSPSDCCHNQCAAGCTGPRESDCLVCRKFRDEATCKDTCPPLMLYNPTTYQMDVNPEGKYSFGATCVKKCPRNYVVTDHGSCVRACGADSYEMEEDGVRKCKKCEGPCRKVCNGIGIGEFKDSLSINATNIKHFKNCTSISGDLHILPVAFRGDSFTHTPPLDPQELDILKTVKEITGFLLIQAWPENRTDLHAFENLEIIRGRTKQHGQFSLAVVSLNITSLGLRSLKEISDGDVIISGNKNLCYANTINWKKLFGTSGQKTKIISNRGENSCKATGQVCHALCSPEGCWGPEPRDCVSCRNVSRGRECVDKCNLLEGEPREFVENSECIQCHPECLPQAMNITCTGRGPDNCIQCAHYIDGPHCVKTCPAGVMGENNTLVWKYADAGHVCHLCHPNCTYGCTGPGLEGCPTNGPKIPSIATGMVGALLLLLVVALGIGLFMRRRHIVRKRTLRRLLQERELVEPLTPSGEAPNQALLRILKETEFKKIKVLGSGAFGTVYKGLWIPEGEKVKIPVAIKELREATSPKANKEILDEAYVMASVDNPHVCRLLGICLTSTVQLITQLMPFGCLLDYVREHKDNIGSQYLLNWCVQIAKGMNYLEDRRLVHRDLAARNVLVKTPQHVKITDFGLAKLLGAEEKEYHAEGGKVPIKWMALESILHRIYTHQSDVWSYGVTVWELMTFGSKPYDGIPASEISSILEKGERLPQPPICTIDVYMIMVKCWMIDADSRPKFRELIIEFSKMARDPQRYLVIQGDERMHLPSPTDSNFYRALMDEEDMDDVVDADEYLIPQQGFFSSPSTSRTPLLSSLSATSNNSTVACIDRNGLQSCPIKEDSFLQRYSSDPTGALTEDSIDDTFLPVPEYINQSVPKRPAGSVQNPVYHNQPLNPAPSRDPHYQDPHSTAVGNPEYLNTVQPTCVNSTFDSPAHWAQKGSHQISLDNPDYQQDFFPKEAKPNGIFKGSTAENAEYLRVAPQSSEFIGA

A549 [7] = assay: Antiproliferative activity against human A549 cells; type: functional, cell-based
[8] = molecular target: Cyclin-dependent kinase 4 (Homo sapiens, UniProt P11802); assay: Inhibition of CDK4 (unknown origin)
Chain of Cyclin-dependent kinase 4 (P11802 whole entry): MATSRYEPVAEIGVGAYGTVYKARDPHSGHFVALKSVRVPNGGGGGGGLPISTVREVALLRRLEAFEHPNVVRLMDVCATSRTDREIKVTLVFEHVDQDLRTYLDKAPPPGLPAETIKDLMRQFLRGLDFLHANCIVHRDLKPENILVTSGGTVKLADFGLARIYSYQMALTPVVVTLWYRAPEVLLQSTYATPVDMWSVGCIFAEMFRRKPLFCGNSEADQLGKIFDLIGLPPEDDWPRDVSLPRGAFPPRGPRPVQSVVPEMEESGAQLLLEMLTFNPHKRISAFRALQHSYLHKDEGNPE

[9] = Inhibition of human SCC-25 cell metabolism incubated for 72 hrs by CCK8 assay; type: functional; conditions: SCC-25, 72 h
Histone deacetylase [10] = assay: Inhibition of HDAC in human HeLa cell nuclear extracts using Boc-Lys (acetyl)-AMC as substrate preincubated for 5 mins followed by substrate addition and measured after 30 mins by fluorescence based assay
[11] = molecular target: T4, Epidermal growth factor receptor; assay: Inhibition of EGFR (unknown origin) incubated for 40 mins by kinase-glo plus luminescence assay
A549 [12] = assay: Antiproliferative activity against human A549 cells incubated for 72 hrs by MTT assay; type: functional, cell-based; conditions: A549, 72 h
MDA-MB-468 = assay: Antiproliferative activity against human MDA-MB-468 cells incubated for 72 hrs by MTT assay; type: functional, cell-based; conditions: MDA-MB-468, 72 h
KG-1 = assay: Antiproliferative activity against human KG-1 cells incubated for 72 hrs by MTT assay; type: functional, cell-based; conditions: KG-1, 72 h
[13] = molecular target: DNA (cytosine-5)-methyltransferase 1 (Homo sapiens, UniProt P26358); assay: Inhibition of DNMT1 (unknown origin) using poly(dI-dC)-poly(dI-dC as substrate in presence of [3H-SAM] preincubated for 15 mins followed by substrate and [3H-SAM] addition and measured after 120 mins by liquid scintillation counting method
Chain of DNA (cytosine-5)-methyltransferase 1 (P26358 whole entry): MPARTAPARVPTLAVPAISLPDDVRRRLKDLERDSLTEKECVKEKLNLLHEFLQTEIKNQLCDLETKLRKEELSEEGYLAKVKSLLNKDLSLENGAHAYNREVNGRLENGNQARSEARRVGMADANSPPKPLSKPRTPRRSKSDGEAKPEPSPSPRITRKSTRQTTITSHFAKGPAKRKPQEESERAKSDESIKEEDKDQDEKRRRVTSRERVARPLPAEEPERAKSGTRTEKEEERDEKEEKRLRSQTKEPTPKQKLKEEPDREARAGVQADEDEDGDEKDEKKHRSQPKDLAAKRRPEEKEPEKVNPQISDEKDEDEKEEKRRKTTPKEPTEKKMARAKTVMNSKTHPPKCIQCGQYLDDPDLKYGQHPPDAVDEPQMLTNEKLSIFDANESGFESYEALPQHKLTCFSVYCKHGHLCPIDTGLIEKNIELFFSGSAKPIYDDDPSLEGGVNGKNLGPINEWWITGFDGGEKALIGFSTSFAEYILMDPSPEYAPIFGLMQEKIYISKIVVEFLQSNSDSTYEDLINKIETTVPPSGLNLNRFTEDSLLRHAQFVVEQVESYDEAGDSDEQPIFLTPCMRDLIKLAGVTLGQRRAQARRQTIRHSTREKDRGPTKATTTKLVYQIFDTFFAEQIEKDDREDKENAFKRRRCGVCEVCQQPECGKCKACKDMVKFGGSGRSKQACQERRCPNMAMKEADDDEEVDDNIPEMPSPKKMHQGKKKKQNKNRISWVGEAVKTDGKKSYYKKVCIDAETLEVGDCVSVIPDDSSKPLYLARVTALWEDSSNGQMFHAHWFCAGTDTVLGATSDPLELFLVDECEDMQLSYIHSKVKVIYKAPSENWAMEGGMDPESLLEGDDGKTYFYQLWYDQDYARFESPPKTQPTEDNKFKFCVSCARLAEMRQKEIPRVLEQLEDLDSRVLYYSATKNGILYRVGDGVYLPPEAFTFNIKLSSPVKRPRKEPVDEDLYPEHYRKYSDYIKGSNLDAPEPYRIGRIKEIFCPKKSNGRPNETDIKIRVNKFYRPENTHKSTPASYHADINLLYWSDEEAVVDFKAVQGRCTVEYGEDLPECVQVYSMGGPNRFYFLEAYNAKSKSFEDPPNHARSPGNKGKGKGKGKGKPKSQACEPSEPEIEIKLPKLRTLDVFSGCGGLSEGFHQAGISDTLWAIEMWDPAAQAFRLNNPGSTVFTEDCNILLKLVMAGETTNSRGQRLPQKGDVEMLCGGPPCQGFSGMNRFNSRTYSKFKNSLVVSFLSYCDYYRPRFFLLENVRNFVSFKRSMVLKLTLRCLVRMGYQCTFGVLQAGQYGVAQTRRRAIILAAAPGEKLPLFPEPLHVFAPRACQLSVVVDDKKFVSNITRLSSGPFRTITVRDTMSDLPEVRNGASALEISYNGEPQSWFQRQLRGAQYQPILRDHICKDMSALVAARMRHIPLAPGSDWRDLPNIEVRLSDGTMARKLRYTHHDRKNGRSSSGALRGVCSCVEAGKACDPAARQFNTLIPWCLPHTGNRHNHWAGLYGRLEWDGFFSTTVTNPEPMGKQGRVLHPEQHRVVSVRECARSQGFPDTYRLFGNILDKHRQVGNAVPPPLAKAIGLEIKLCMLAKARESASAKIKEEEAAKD

[14] = molecular target: DNA (cytosine-5)-methyltransferase 3A (Homo sapiens, UniProt Q9Y6K1); assay: Inhibition of DNMT3A (unknown origin) using biotinylated DNA oligonucleotides as substrate in presence of [3H-SAM] preincubated for 15 mins followed by substrate and [3H-SAM] addition and measured after 4 hrs by liquid scintillation counting method
Chain of DNA (cytosine-5)-methyltransferase 3A (Q9Y6K1 whole entry, looked up): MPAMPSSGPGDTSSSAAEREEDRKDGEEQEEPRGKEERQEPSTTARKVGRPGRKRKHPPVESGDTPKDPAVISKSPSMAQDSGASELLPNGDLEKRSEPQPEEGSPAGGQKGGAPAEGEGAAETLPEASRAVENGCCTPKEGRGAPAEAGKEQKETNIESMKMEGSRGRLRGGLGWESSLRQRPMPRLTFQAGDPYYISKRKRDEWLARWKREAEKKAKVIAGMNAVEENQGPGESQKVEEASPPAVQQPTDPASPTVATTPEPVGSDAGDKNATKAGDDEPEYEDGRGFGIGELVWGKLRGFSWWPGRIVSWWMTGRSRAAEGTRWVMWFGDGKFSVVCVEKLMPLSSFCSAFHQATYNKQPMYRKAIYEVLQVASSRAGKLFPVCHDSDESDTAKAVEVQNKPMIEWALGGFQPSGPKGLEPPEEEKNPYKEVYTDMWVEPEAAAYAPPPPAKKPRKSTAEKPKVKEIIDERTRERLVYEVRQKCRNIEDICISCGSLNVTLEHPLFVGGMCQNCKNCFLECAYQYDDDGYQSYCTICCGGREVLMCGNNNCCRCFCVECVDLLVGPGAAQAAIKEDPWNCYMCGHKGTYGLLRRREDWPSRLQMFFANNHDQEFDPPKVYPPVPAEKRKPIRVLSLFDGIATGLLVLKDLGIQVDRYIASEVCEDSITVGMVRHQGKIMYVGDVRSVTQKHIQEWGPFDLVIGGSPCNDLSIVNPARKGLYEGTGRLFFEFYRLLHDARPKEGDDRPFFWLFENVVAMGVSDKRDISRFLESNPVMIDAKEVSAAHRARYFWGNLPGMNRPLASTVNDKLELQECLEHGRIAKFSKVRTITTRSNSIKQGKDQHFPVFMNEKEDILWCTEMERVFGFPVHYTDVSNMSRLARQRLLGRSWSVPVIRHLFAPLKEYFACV

Histone deacetylase 1 [15] = molecular target: T2, Histone deacetylase 1; assay: Inhibition of HDAC1 (unknown origin) using Ac-peptide as substrate in preincubated for 15 mins followed by substrate addition and measured after 60 mins by fluorescence method
[16] = molecular target: Class 1 histone deacetylase (Homo sapiens, UniProt Q13547+O15379+Q92769+Q9BY41); assay: Inhibition of HDAC class1 (unknown origin); type: protein assay

Compound CCC(CC)(c1ccc(OCC(=O)NO)cc1)c1ccc(OCC(O)C(C)(C)C)c(C)c1 (centres undefined) has an IC50 (4T1) of 10000 nM.
For Cc1noc(C)c1-c1ccc2c(c1)c(Cc1ccc(F)cc1)cn2CCCCCCC(=O)NO, the IC50 (THP-1) was 15500 nM.
In the case of COc1ccc2c(NC3CCN(Cc4ccccc4)CC3)nc(NCCNC(=O)CCCCC(=O)NO)nc2c1, the IC50 (Histone deacetylase [1]) is reported as 5700 nM and the IC50 [2] is reported as 7140 nM.
Cc1sc2c(c1C)C(c1ccc(Cl)cc1)=N[C@@H](CC(=O)Nc1ccc(C(=O)NO)cc1)c1nnc(C)n1-2 gave an IC50 (Histone deacetylase 1 [3]) of 21 nM and an IC50 (CAPAN-1) of 150 nM.
Compound O=C(CCCCCNC(=O)c1cc(O)c2c(c1)C(=O)c1cccc(O)c1C2=O)NO has an IC50 (T98G) of 5500 nM, an IC50 (U-87 MG) of 8000 nM and an IC50 (U-251) of 7000 nM.
With O=C(CCCCCCn1cc(-c2ccc3ncnc(Nc4ccc(Br)cc4F)c3c2)nn1)NO the IC50 (Histone deacetylase 1 [4]) was 1.1 nM, the IC50 [5] was 4.3 nM and the IC50 [6] was 10.3 nM. The IC50 (A549 [7]) was 710 nM.
Cc1nc2ccc(-c3nc(Nc4ccc(NC(=O)CCCCCC(=O)NO)cc4)ncc3F)cc2n1C(C)C showed an IC50 (Histone deacetylase 1 [4]) of 17 nM, an IC50 [8] of 1.2 nM and an IC50 [9] of 126 nM.
In the case of COc1cc(NC(=O)CCCCCCCCCCC(=O)NO)ccc1Nc1nccc(-c2cn(C)c3ccccc23)n1, the IC50 (Histone deacetylase [10]) is reported as 85 nM, the IC50 [11] is reported as 5700 nM and the IC50 (A549 [12]) is reported as 2190 nM. For the same compound, the IC50 (MDA-MB-468) was 230 nM and the IC50 (KG-1) was 240 nM.
For O=C(NO)C1CCN(CC(O)COC(Cn2c3ccccc3c3ccccc32)Cn2c3ccccc3c3ccccc32)CC1 (centres undefined), the IC50 [13] was 2020 nM, the IC50 [14] was 930 nM and the IC50 (Histone deacetylase 1 [15]) was 4160 nM.
With C#Cc1cccc(Nc2ncnc3cc(OCCOC)c(OCCOC)cc23)c1 [ERLOTINIB] the IC50 (A549 [7]) was 16800 nM.
C=CC(=O)Nc1cc(Nc2nccc(-c3cn(C)c4ccccc34)n2)c(OC)cc1N(C)CCN(C)C [OSIMERTINIB] gave an IC50 (A549 [12]) of 1970 nM, an IC50 (MDA-MB-468) of 1300 nM and an IC50 (KG-1) of 530 nM.
Cn1c(CCCCCCC(=O)NO)nc2cc(N(CCCl)CCCl)ccc21 [TINOSTAMUSTINE] showed an IC50 [16] of 6 nM.
